Data from patent US4803167A, “Monoclonal antidigoxtin antibodies” (The General Hospital Corporation, priority 1982, dated 1989).
Where “and” joins values, the source holds several entries; their conditions need not be identical. Equal entries are not always repeated. Where two headings read alike, the source gives them in different places.

Legend:
[1] = target: monoclonal anti-digoxin antibody Dig 26-40 (IgG2a); test: Affinity determination, [3H]digoxin dextran-coated charcoal RIA; format: binding, mouse (A/J); settings: 60 min, read-out: Affinity Constant K0 for digoxin (converted)
Protocol: (§1) Using the dextran coated charcoal binding method for separation of bound antibody from free H^3 -digoxin (Smith, J. Clin. Invest. 51:1583 (1972)), affinities (Ko) for monoclonal anti-digoxin antibodies were determined for antibody present in culture media and in preparations purified from ascites. Data were plotted according to a modified Sips equation (Nisonoff et al, J. Immunol. 80:417 (1958)), as described earlier herein. Typical of single component systems, a linear plot was obtained for all hybridomas analyzed. Correlation coefficients (r) varied from 0.989 to 0.999 for the monoclonal antibodies analyzed by this method. As anticipated, no significant difference was found for affinity constants determined for antibody present in culture media and in preparations following purification from ascites fluid (Table III).

[2] = target: monoclonal anti-digoxin antibody Dig 26-10 (IgG2a); test: as above; format: binding, mouse (A/J); settings: for Kd: 60 min, read-out: Affinity Constant K0 for digoxin (converted)
Protocol: as §1

[3] = tested on: monoclonal anti-digoxin antibody Dig 25-54 (IgG1); test: as above; format: binding, mouse (A/J); settings: for Kd: 60 min, read-out: Affinity Constant K0 for digoxin (converted)
Protocol: as §1

[4] = tested on: monoclonal anti-digoxin antibody Dig 35-20 (IgG1); test: as above; format: binding, mouse (A/J); settings: for Kd: 60 min, read-out: Affinity Constant K0 for digoxin (converted)
Protocol: as §1

[5] = target: monoclonal anti-digoxin antibody Dig 26-30 (IgG2a); test: as above; format: binding, mouse (A/J); settings: 60 min, read-out: Affinity Constant K0 for digoxin (converted)
Protocol: as §1

[6] = target: monoclonal anti-digoxin antibody Dig 26-20 (IgG2a); test: as above; format: binding, mouse (A/J); settings: 60 min, read-out: Affinity Constant K0 for digoxin (converted)
Protocol: as §1

[7] = tested on: heterogeneous anti-digoxin antibody, Pooled mouse antisera; test: as above; format: binding, mouse (A/J); settings: antibody source: serum; 60 min; read-out: Affinity Constant K0 for digoxin (converted)
Protocol: (§2) A pool of mouse antidigoxin antibody was prepared from immune sera as follows. A/J mice immunized with Dig-HSA as described above, were bled from the tail on the 3rd or 4th week following intraperitoneal injection of antigen. Their sera were pooled and the antidigoxin antibodies were purified from the sera by affinity chromatography as described below. This antibody preparation was used as a standard antidigoxin reagent in the PVC-plate RIA (described below).

[8] = target: heterogeneous anti-digoxin antibody, Pooled mouse antibody; test: as above; format: binding, mouse (A/J); settings: antibody source: serum; 60 min; read-out: Affinity Constant K0 for digoxin (converted)
Protocol: as §2

[9] = tested on: monoclonal anti-digoxin antibody Dig 26-20; test: Specificity determination, inhibition of [3H]digoxin binding in dextran charcoal RIA; parameters: species or system mouse (A/J); settings: inhibition of antibody binding to [3H]digoxin
Protocol: (§3) The specificity of each antidigoxin antibody for related cardiac glycosides was assessed by the inhibition of binding of antibody in the dextran charcoal radioimmunoassay Smith (1972), supra. To a constant amount of H^3 -digoxin (1.5 ng) in 1 ml of buffer is added different amounts ([…]) of various cardiac glycosides: digoxin, digitoxin, digitoxigenin, digoxigenin, acetyl-strophanthidin, ouabain, deslanoside, and endogenous steroids such as chloresterol, cortisol, androsterone, 17-[beta]-estradiol, progesterone, and testosterone. After 5 minutes, a constant amount of anti-digoxin antibody was added and the assay was continued as described above. Comparison among different antidigoxin antibodies with respect to their fine specificity was made by determining the amount of cardiac glycoside required to achieve 50% inhibition relative to that required for cold digoxin.
(§4) Specificity of monoclonal antibody binding site for related cardiac glycosides was examined by means of hapten inhibition experiments in which the binding of monoclonal antibody to H^3 -digoxin was inhibited by cold digoxin and related cardiac glycosides.

[10] = tested on: monoclonal anti-digoxin antibody Dig 26-10; test: as above; parameters: species or system mouse (A/J); settings: inhibition of antibody binding to [3H]digoxin
Protocol: as §3, §4

[11] = tested on: monoclonal anti-digoxin antibody Dig 25-54; test: as above; parameters: species or system mouse (A/J); settings: inhibition of antibody binding to [3H]digoxin
Protocol: as §3, §4

[12] = tested on: monoclonal anti-digoxin antibody Dig 26-30; test: as above; parameters: species or system mouse (A/J); settings: inhibition of antibody binding to [3H]digoxin
Protocol: as §3, §4

[13] = tested on: monoclonal anti-digoxin antibody Dig 26-40; test: as above; parameters: species or system mouse (A/J); settings: inhibition of antibody binding to [3H]digoxin
Protocol: as §3, §4

[14] = tested on: monoclonal anti-digoxin antibody Dig 35-20; test: as above; parameters: species or system mouse (A/J); settings: inhibition of antibody binding to [3H]digoxin
Protocol: as §3, §4

[15] = target: Fab fragment of monoclonal anti-digoxin antibody Dig 26-10; test: Affinity determination, [3H]digoxin dextran-coated charcoal RIA; settings: read-out: Affinity Constant K0 for digoxin, Fab of Dig 26-10, 60 min
[16] = tested on: heterogeneous anti-digoxin antibody, Sheep Antisera; test: as above; format: binding; settings: antibody source: serum; 60 min; read-out: Affinity Constant K0 for digoxin (converted)
Protocol: (§5) Antisera specific for digoxin was prepared in sheep as previously described by Curd et al, Proc. Nat. Acad. Sci. 65: 2401 (1971). High affinity antidigoxin sheep antisera was used in the clinical RIA for digoxin (described below).

[17] = tested on: Sheep Anti-Dig Serum (heterogeneous anti-digoxin antiserum); test: Specificity determination, inhibition of [3H]digoxin binding in dextran charcoal RIA; settings: inhibition of antibody binding to [3H]digoxin
Protocol: as §5, §3, §4

[18] = target: monoclonal anti-digoxin antibody Dig 26-10; test: Affinity constant by equilibrium dialysis; format: binding, mouse (A/J); settings: confirmed by equilibrium dialysis
Text: The affinity constant determined for Dig 26-10 (approximately 10^9 M^-1) was confirmed by equilibrium dialysis. […] The Ko determined for Dig 35-20 was also high, 1.3-3.4×10^9 M^-1.

## C[C@H]1O[C@@H](O[C@H]2[C@@H](O)C[C@H](O[C@H]3[C@@H](O)C[C@H](O[C@H]4CC[C@@]5(C)[C@H](CC[C@@H]6[C@@H]5C[C@@H](O)[C@]5(C)[C@@H](C7=CC(=O)OC7)CC[C@]65O)C4)O[C@@H]3C)O[C@@H]2C)C[C@H](O)[C@@H]1O [Digoxin]
[1]; antibody purified from ascites
  Kd: 0.385 nM
[1]; antibody source: culture media
  Kd: 0.227 nM
[2]; antibody purified from ascites
  Kd: 0.213 nM
[2]; antibody source: culture media
  Kd: 0.118 nM
[2]; intact antibody
  Ko for digoxin, average value for the intact antibody: < 5×10^9
[3]
  Ko for digoxin: 3.5 to 5.2 ×10^8 M^-1
  apparent affinity Ko for digoxin: < 10^8 M^-1
[3]; antibody purified from ascites
  Kd: 1.92 nM
[3]; antibody source: culture media
  Kd: 3.85 nM
[4]
  Ko for digoxin: 1.3-3.4×10^9 M^-1
[4]; antibody purified from ascites
  Kd: 0.769 nM
[4]; antibody source: culture media
  Kd: 0.526 nM
[5]; antibody purified from ascites
  Kd: 0.172 nM
[5]; antibody source: culture media
  Kd: 0.256 nM
[6]; antibody purified from ascites
  Kd: 0.294 nM
[6]; antibody source: culture media
  Kd: 0.714 nM
[7]
  Kd: 0.323 nM
[8]
  Kd: 0.286 nM
[9]
  amount of inhibitor required to give 50% inhibition relative to the amount of digoxin which gave 50% inhibition: 1.0
[10]
  amount of inhibitor required to give 50% inhibition relative to the amount of digoxin which gave 50% inhibition: 1.0
[11]
  amount of inhibitor required to give 50% inhibition relative to the amount of digoxin which gave 50% inhibition: 1.0
[12]
  amount of inhibitor required to give 50% inhibition relative to the amount of digoxin which gave 50% inhibition: 1.0
[13]
  amount of inhibitor required to give 50% inhibition relative to the amount of digoxin which gave 50% inhibition: 1.0
[14]
  amount of inhibitor required to give 50% inhibition relative to the amount of digoxin which gave 50% inhibition: 1.0
[15]
  Kd: 0.833 nM and 1 nM
[16]
  Kd: 0.0833 nM
[17]
  amount of inhibitor required to give 50% inhibition relative to the amount of digoxin which gave 50% inhibition: 1.0
[18]
  Kd: ~1 nM
